Reference: a compilation of properties of binary mixtures (doi:10.1016/j.jct.2008.09.001)

Assay: xn = mol fraction of the nth substance listed
Conditions: 101.3 kPa

CCCCCCCC[n+]1ccccc1.F[B-](F)(F)F + O
viscosity [mPa·s]
Conditions	x2 = 0	x2 = 0.1	x2 = 0.184	x2 = 0.324	x2 = 0.477	x2 = 0.562	x2 = 0.67	x2 = 0.758	x2 = 0.783
283.15 K	640	404	261	161.4	116.4	63.8	65.55	51.8	54.27
288.15 K	–	–	–	–	–	49.84	–	–	38.63
293.15 K	320	–	–	–	69.9	39.6	40.42	28.74	29.21
298.15 K	234	159.1	112.3	72	55.07	31.77	–	–	22.73
303.15 K	171.9	122.5	86	57.88	44.37	26.47	26.82	19.17	18.09
308.15 K	–	96.2	68.3	47.09	36.11	–	22.27	15.97	–
313.15 K	105.7	71.5	54.93	38.75	30.19	–	–	13.56	12.78
318.15 K	–	57.41	44.98	–	25.23	16.88	15.98	11.52	11.08
323.15 K	64.89	46.73	37.06	–	21.39	–	13.65	9.95	9.39
328.15 K	53.52	–	–	23.23	18.15	12.05	11.88	–	8.2
333.15 K	–	–	–	19.92	15.84	10.61	10.38	–	7.17
338.15 K	38.1	27.06	22.38	17.32	13.44	–	–	6.75	6.31
343.15 K	32.38	23.06	19.25	–	11.58	8.15	–	5.99	5.58
348.15 K	–	19.83	16.71	13.13	–	7.17	7.19	5.29	4.97
353.15 K	24.05	–	–	–	–	–	–	–	–

CCCC[n+]1ccccc1.F[B-](F)(F)F + O
viscosity [mPa·s]
Conditions	x2 = 0	x2 = 0.11	x2 = 0.263	x2 = 0.391	x2 = 0.414	x2 = 0.549	x2 = 0.637	x2 = 0.724	x2 = 0.856
283.15 K	464	211	–	44.9	41.27	22.77	–	–	5.53
288.15 K	313	–	60.2	–	32.98	18.49	–	–	4.58
293.15 K	223	115.6	47.4	29.05	26.81	15.37	10.82	7.61	3.88
298.15 K	163.3	88.1	38.1	23.97	22.21	12.99	9.16	–	3.36
303.15 K	123	–	31.12	20.01	18.63	–	8	5.65	2.94
308.15 K	94.2	53.4	25.87	16.93	15.81	9.61	7.01	4.92	2.6
313.15 K	70.3	43.2	21.69	14.51	13.58	–	6.13	–	2.32
318.15 K	55.8	35.5	18.48	12.53	11.77	7.41	5.43	3.85	2.09
323.15 K	45.1	29.49	15.87	10.93	10.22	6.57	4.78	3.46	1.9
328.15 K	37.1	–	13.77	9.58	9.06	5.86	4.29	–	1.74
333.15 K	30.9	21.18	12.04	8.6	–	5.19	3.87	2.82	1.61
338.15 K	26.01	18.21	10.57	7.71	7.17	4.68	–	2.58	1.5
343.15 K	22.17	–	–	–	6.37	4.24	3.22	2.37	1.4
353.15 K	15.84	–	–	–	–	–	–	–	–
